From patent publication US8791269B2, “Complex of amorphous tomoxiprole and cyclodextrin with fast dissolution rate and process for the preparation thereof” (Fondazione Istituto Insubrico di Ricerca per la Vita, priority 2011, dated 2014)

Experiments:
[1] = Dissolution rate in buffer solution HCl-KCl pH 1.5; assay type: physicochemical; conditions: for Substance dissolved (concentration of tomoxiprole): buffer HCl-KCl pH 1.5
Method: The dissolution rate of the complex tomoxiprole-2-hydroxypropyl-beta-cyclodextrin obtained in Example 1 is determined by the following method.
In a flask provided with magnetic mixer 600 mg of tomoxiprole-2-hydroxypropyl-beta-cyclodextrin complex (corresponding to 100 mg of tomoxiprole) are added to 10 ml of a buffer solution HCl—KCl pH 1.5. Samples of the suspension are collected at intervals of time, clarified by centrifugation and the tomoxiprole concentration in the clear supernatant is determined by UV absorption at 328 nm.
The method was the same of that described above, with the exception that 100 mg of tomoxiprole were added instead of 600 mg of complex tomoxiprole/HPBCD

[2] = Surface wettability (water contact angle); assay type: physicochemical; conditions: at any pH
[3] = orally administered; cited from earlier work
[4] = active doses; cited from earlier work
in vivo = conditions: rat, po, 5 mg/kg
Method: To assess whether the faster dissolution rate observed for the complex actually corresponds to a faster in vivo absorption, the pharmacokinetic behaviour of tomoxiprole (TMX) and tomoxiprole-2-hydroxypropyl-beta-cyclodextrin complex (TMX/HPBCD) in rats have been compared.
Experimental design: Two groups of four rats each have been used. To the rats of each group was orally given either a dose of 5 mg/Kg of tomoxiprole or a dose of complex tomoxiprole-2-hydroxypropyl-beta-ciclodestrin corresponding to 5 mg/Kg of active substance. […] Samples of blood were collected at 0.3, 0.6, 1, 1.5, 2 and 6 hours, and plasma separated by centrifugation. Sample processing and HPLC analyses were performed as previously described (A. Bernareggi et al. J. liquid chromatography 1984, 7, 2093-2101). The pharmacokinetic parameters calculated from the plasma levels of tomoxiprole observed with the two formulations are reported in the following Table 2

Time at which the saturation concentration is reached ([1]; buffer pH 1.5): over 8 min
Substance dissolved (concentration of tomoxiprole) ([1]; time 0.5 min): 1 mg/mL
Substance dissolved (concentration of tomoxiprole) ([1]; time 2 min): 3 mg/mL
Substance dissolved (concentration of tomoxiprole) ([1]; time 4 min): 4 mg/mL
Substance dissolved (concentration of tomoxiprole) ([1]; time 8 min): 4.9 mg/mL
Substance dissolved (concentration of tomoxiprole) ([1]; time 12 min): 5.2 mg/mL
Water contact angle [2]: 81 °
AUC (in vivo): 46 ng·h/mL
AUC(0-t) (in vivo): 1170 ng·h/mL
Cmax (in vivo): 220 ng/mL
Tmax (in vivo): 1.5 h
Compound: COc1ccc(-c2nc3c4ccccc4ccc3n2C(C)C)cc1 [Tomoxiprole crystals, 2-(4-methoxyphenyl)-3-(1-methylethyl)-3H-naphth[1,2-d] imidazole]
Time of maximum concentration in the blood after administration [3]: over one hour
Ulcerogenic activity [4]: devoid of ulcerogenic activity
